Data: US6875760B2 (Novo Nordisk A/S, priority 1999, dated 2005)

Tests used:
[1] = molecular target: T1, cloned human glucagon receptor (Homo sapiens, UniProt P47871); assay: Glucagon Binding Assay (I); conditions: for IC50: plasma membranes of BHK cells expressing the receptor, 125I-glucagon tracer, read-out: Glu Bd Assay (I) IC50
T1 construct: expressed in transfected cells; plasma membrane preparation
Protocol: Binding of compounds to the glucagon receptor was determined in a competition binding assay using the cloned human glucagon receptor.
Receptor binding was assayed using cloned human receptor (Lok et al., Gene 140, 203-209 (1994)). The receptor inserted in the pLJ6′ expression vector using EcoRI/SSt1 restriction sites (Lok et al.) was expressed in a baby hamster kidney cell line (A3 BHK 570-25).
Plasma membranes were prepared by growing cells to confluence, detaching them from the surface and resuspending the cells in cold buffer (10 mM tris/HCl, pH 7.4 containing 30 mM NaCl, 1 mM dithiothreitol, 5 mg/L leupeptin (Sigma), 5 mg/L pepstatin (Sigma), 100 mg/L bacitracin (Sigma) and 15 mg/L recombinant aprotinin (Novo Nordisk A/S)), homogenization by two 10-s bursts using a Polytron PT 10-35 homogenizer (Kinematica), and centrifugation upon a layer of 41 w/v % sucrose at 95.000×g for 75 min. The white band located between the two layers was diluted in buffer and centrifuged at 40.000×g for 45 min. The precipitate containing the plasma membranes was suspended in buffer and stored at −80° C. until use. Glucagon was iodinated according to the chloramine T method (Hunter and Greenwood, Nature 194, 495 (1962)) and purified using anion exchange chromatography (Jørgensen et al., Hormone and Metab. Res. 4, 223-224 (1972). The specific activity was 460 μCi/μg on the day of iodination. Tracer was stored at −18° C. in aliquots and were used immediately after thawing.
Binding assays were carried out in triplicate in filter microtiter plates (MADV N65, Millipore). The buffer used in this assay was 50 mM HEPES, 5 mM EGTA, 5 mM MgCl2, 0.005% tween 20, pH 7.4. Glucagon was dissolved in 0.05 M HCl, added an equal amount (w/w) of HSA and freeze-dried. On the day of use, it was dissolved in water and diluted in buffer to the desired concentrations.
Test compounds were dissolved and diluted in DMSO. 140 μL buffer, 25 μL glucagon or buffer, and 10 μL DMSO or test compound were added to each well. Tracer (50.000 cpm) was diluted in buffer and 25 μL were added to each well. 1-4 μg freshly thawed plasma membrane protein diluted in buffer was then added in aliquots of 25 μL to each well. Plates were incubated at 30° C. for 2 hours. Non-specific binding was determined with 10^−6 M of glucagon. Bound tracer and unbound tracer were then separated by vacuum filtration (Millipore vacuum manifold). The plates were washed with 2×100 μL buffer/well. The plates were air dried for a couple of hours, whereupon the filters were separated from the plates using a Millipore Puncher. The filters were counted in a gamma counter.

human glucagon receptor = molecular target: T2, human glucagon receptor (Homo sapiens, UniProt P47871); assay: Glucagon Binding Assay (III); conditions: BHK cell membranes, WGA SPA beads, 125I-glucagon; read-out: Glu Bd Assay (III) IC50
T2 construct: expressed in transfected cells; host or cells: BHK (baby hamster kidney) cells
Outline: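 Non-specific binding was set with 500 nM glucagon in this SPA-type binding assay using WGA beads. The receptor source was a membrane preparation, kept on ice or at 4 °C, from BHK cells transfected with the human receptor. Scintillation counts were taken after 4 hours of shaking and 8–48 hours of settling.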

[2] = molecular target: T1, cloned human glucagon receptor; assay: Glucagon Binding Assay (II); conditions: for IC50: plasma membranes of BHK cells expressing the receptor, read-out: Glu Bd Assay (II) IC50

T2 sequence (P47871 26-477): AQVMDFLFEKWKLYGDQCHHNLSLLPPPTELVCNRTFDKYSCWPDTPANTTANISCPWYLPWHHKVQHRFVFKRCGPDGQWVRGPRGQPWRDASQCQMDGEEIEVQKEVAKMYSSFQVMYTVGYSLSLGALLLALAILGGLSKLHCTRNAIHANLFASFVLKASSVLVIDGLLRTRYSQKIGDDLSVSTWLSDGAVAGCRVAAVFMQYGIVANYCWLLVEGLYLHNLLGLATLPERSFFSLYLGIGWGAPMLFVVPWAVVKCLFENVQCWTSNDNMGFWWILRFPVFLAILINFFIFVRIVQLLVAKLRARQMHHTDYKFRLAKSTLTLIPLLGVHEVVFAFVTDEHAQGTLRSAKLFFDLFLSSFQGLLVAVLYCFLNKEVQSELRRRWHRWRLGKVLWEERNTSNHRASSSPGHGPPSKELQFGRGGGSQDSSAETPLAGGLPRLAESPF
T1 sequence (P47871 26-477): as above

IC50 [1] | IC50 [2] | Structure (SMILES) | also measured
1280 nM | – | COC(C)(C)C1CCC(N(Cc2ccc(C(=O)NCCC(=O)O)cc2)C(=O)Nc2ccc(OC(F)(F)F)cc2)CC1 (stereo not shown) | –
– | 17 nM | O=C(O)CCNC(=O)c1ccc(CN(C(=O)Nc2cc(Cl)cc(Cl)c2)c2ccc(C3CCCCC3)cc2)cc1 [Example 232, 3-{4-[1-(4-Cyclohexylphenyl)-3-(3,5-dichlorophenyl)ureidomethyl]benzoylamino}propionic acid] | IC50 (human glucagon receptor): 30 nM
– | – | CC(C)(C)C1CCC(N(Cc2ccc(C(=O)NCCC(=O)O)cc2)C(=O)c2cc3ccccc3s2)CC1 (stereo not shown) [Example 4, 3-(4-{[N-(Benzo[b]thiophen-2-carbonyl)-N-(4-tert-butylcyclohexyl)amino]methyl}benzoylamino)propionic acid] | Glu Bd Assay (I) Effect, 100-Residual binding (%) at 1 μM [1]: 28.5%
– | – | O=C(O)CCNC(=O)c1cccc(CN(CC(c2ccccc2)c2ccccc2)C(=O)c2csc3ccc(Cl)cc23)c1 [Example 9, 3-(3-{[N-(5-Chlorobenzo[b]thiophene-3-carbonyl)-N-(2,2-diphenylethyl)amino]methyl}benzoylamino)propionic acid] | Glu Bd Assay (I) Effect, 100-Residual binding (%) ([1]; at 500 nM): 56.4% (at 500
27 nM | – | CC(C)(C)C1CCC(N(Cc2ccc(C(=O)NCCC(=O)O)cc2)C(=O)Nc2ccc(OC(F)(F)F)cc2)CC1 (stereo not shown) [Example 11, 3-{4-[1-(4-tert-Butylcyclohexyl)-3-(4-trifluoromethoxyphenyl)ureidomethyl]benzoylamino}propionic acid] | –
– | 224 nM | CC(C)(C)C1CCC(N(Cc2ccc(C(=O)Nc3nn[nH]n3)cc2)C(=O)C=Cc2c(Cl)cccc2Cl)CC1 (stereo not shown) [Example 477, 4-({(4-tert-Butylcyclohexyl)-[3-(2,6-dichlorophenyl)acryloyl]amino}methyl)-N-(2H-tetrazol-5-yl)benzamide] | IC50 (human glucagon receptor): 464 nM
120 nM | – | O=C(O)CCNC(=O)c1ccc(CN(CC(c2ccccc2)c2ccccc2)C(=O)c2csc3ccc(Cl)cc23)cc1 [Example 1, 3-(4-{[N-(5-Chlorobenzo[b]thiophen-3-carbonyl)-N-(2,2-diphenylethyl)amino]methyl}benzoylamino)propionic acid] | –
1300 nM | – | O=C(O)CCNC(=O)c1ccc(CN(CCc2ccc(Cl)c(Cl)c2)C(=O)c2csc3ccc(Cl)cc23)cc1 [Example 2, 3-(4-{[N-(5-Chlorobenzo[b]thiophen-3-carbonyl)-N-(3,4-dichlorophenylethyl)amino]methyl}benzoylamino)propionic acid] | –
845 nM | – | CC(C)(C)c1ccc(CN(Cc2ccc(C(=O)NCCC(=O)O)cc2)C(=O)c2cc3ccccc3s2)cc1 [Example 7, 3-(4-{[N-(Benzo[b]thiophen-2-carbonyl)-N-(4-tert-butylbenzyl)amino]methyl}benzoylamino)propionic acid] | Glu Bd Assay (I) Effect, 100-Residual binding (%) at 1 μM [1]: 30.4%
2700 nM | – | O=C(O)CCNC(=O)c1ccc(CN(C(=O)Nc2ccc(OC(F)(F)F)cc2)C2CCCCC2)cc1 | –
78 nM | – | CC(C)(C)C1CCC(N(Cc2ccc(C(=O)NCCC(=O)O)cc2)C(=O)Nc2cccc(C(F)(F)F)c2)CC1 (stereo not shown) [Example 13, 3-{4-[1-(4-tert-Butylcyclohexyl)-3-(3-trifluoromethylphenyl)ureidomethyl]benzoylamino}propionic acid] | –
– | 33 nM | O=C(O)CCNC(=O)c1ccc(CN(C(=O)Nc2ccc(OC(F)(F)F)cc2)c2ccc(C3CCCCC3)cc2)cc1 [Example 179, 3-{4-[1-(4-Cyclohexylphenyl)-3-(4-trifluoromethoxyphenyl)ureidomethyl]benzoylamino}propionic acid] | IC50 (human glucagon receptor): 51 nM
– | – | CC(C)(C)C1CCC(N(Cc2ccc(C(=O)NCCC(=O)O)cc2)C(=O)Cc2csc3ccccc23)CC1 (stereo not shown) [Example 3, 3-(4-{[N-(2-Benzo[b]thiophen-3-yl-acetyl)-N-(4-tert-butylcyclohexyl)amino]methyl}benzoylamino)propionic acid] | Glu Bd Assay (I) Effect, 100-Residual binding (%) at 1 μM [1]: 26.2%
42 nM | – | CCCCC(CC)CN(Cc1ccc(C(=O)NCCC(=O)O)cc1)C(=O)Nc1ccc(-c2ccccc2)cc1 (stereo not shown) [Example 10, 3-{4-[3-Biphenyl-4-yl-1-(2-ethylhexyl)ureidomethyl]benzoylamino}propionic acid] | –
675 nM | – | O=C(O)CCNC(=O)c1ccc(CN(CCC(c2ccccc2)c2ccccc2)C(=O)c2ccc(Cl)cc2)cc1 [Example 8, 3-(4-{[N-(4-Chlorobenzoyl)-N-(3,3-diphenylpropyl)amino]methyl}benzoylamino)propionic acid] | Glu Bd Assay (I) Effect, 100-Residual binding (%) at 1 μM [1]: 37.8%
1340 nM | – | O=C(O)CCNC(=O)c1ccc(CN(C(=O)Nc2cc(Cl)cc(Cl)c2)C2CCC3(CC2)SCCS3)cc1 | –
– | 3 nM | O=C(Nc1nn[nH]n1)c1ccc(CN(C(=O)Nc2ccc(Cl)c(C(F)(F)F)c2)c2ccc(C3CCCCC3)cc2)cc1 [Example 282, 4-[3-(4-Chloro-3-trifluoromethylphenyl)-1-(4-cyclohexylphenyl)ureidomethyl]-N-(2H-tetrazol-5-yl)benzamide] | IC50 (human glucagon receptor): 21 nM
800 nM | – | CCCCC(CC)CN(Cc1ccc(C(=O)NCCC(=O)O)cc1)C(=O)/C=C/c1c(Cl)cccc1Cl (stereo not shown) [Example 5, 3-(4-{[N-[3-(2,6-Dichlorophenyl)acryloyl]-N-(2-ethylhexyl)amino]methyl}benzoylamino)propionic acid] | Glu Bd Assay (I) Effect, 100-Residual binding (%) at 1 μM [1]: 31.1%
1200 nM | – | CC(C)(C)c1ccc(CN(Cc2ccc(C(=O)NCCC(=O)O)cc2)C(=O)/C=C/c2c(Cl)cccc2Cl)cc1 [Example 6, 3-(4-{[N-[3-(2,6-Dichlorophenyl)acryloyl]-N-(4-tert-butylbenzyl)amino]methyl}benzoylamino)propionic acid] | Glu Bd Assay (I) Effect, 100-Residual binding (%) at 1 μM [1]: 29.5%
– | 118 nM | C[C@@H](NC(=O)N(Cc1ccc(C(=O)NCCC(=O)O)cc1)c1ccc(C2CCCCC2)cc1)c1ccc2ccccc2c1 [Example 610, 3-{4-[1-(4-Cyclohexylphenyl)-3-[(1R)-1-(2-naphthyl)ethyl]ureidomethyl]benzoylamino}propionic acid] | –
– | 142 nM | O=C(O)CCNC(=O)c1ccc(CN(Cc2cccc(Br)c2)c2ccc(C3CCCCC3)cc2)cc1 [Example 581, 3-(4-{[(3-Bromobenzyl)-(4-cyclohexylphenyl)amino]methyl}benzoylamino)propionic acid] | –
– | 284 nM | O=C(Nc1nn[nH]n1)c1ccc(CN(Cc2cccc(Br)c2)c2ccc(C3CCCCC3)cc2)cc1 [Example 584, 4-{[(3-Bromobenzyl)-(4-cyclohexylphenyl)amino]methyl}-N-(2H-tetrazol-5-yl)benzamide] | –
20 nM | – | CC(C)(C)C1CCC(N(Cc2ccc(C(=O)NCCC(=O)O)cc2)C(=O)Nc2ccc(-c3ccccc3)cc2)CC1 (stereo not shown) [Example 12, 3-{4-[3-Biphenyl-4-yl-1-(4-tert-butylcyclohexyl)ureidomethyl]benzoylamino}propionic acid] | –
– | 167 nM | O=C(O)CCNC(=O)c1ccc(CN(Cc2cccc(Cl)c2)Cc2cccc(Cl)c2)cc1 [Example 154, 3-(4-{[Bis-(3-chlorobenzyl)amino]methyl}benzoylamino)propionic acid] | –
– | 217 nM | CCCCOC(=O)c1ccc(NC(=O)N(Cc2ccc(C(=O)NCCC(=O)O)cc2)C2CCCCCC2)cc1 | –
– | – | CC(C)(C)C1CCC(N(Cc2ccc(C(=O)NCCC(=O)O)o2)C(=O)Nc2ccc(Cl)c(C(F)(F)F)c2)CC1 (stereo not shown) [Example 213, 3-({5-[1-(4-tert-Butylcyclohexyl)-3-(4-chloro-3-trifluoromethylphenyl)ureidomethyl]furan-2-carbonyl}amino)propionic acid] | inhibition at 1 µM ([2]; screened at 1 μM, library compounds, read-out: displacement of the glucagon tracer when screened at 1 μM concentration in the glucagon binding assay II): > 50%
